Test results reported in patent US4927659A, “Tris-hydroxymethyl lower alkane esters as fat mimetics” (Nabisco Brands, Inc., priority 1989, dated 1990).

What was measured:
[1] = in vivo animal feeding study for caloric availability (body weight gain); set-up: species or system male Sprague-Dawley rats; conditions: rats, diet of 50% fort and 21% test compound, 14 days
Description: This example illustrates how the novel fat mimetics of this invention are screened for caloric availability by a carefully controlled in vivo animal feeding study.
An experimental relationship between total calories ingested and animal body weight gain is established by monitoring the body weight gain associated with consumption of a nutritionally balanced diet containing varying concentrations of a reference substance such as corn oil which has a known caloric availability. Correlations between total calories ingested and body weight gain are excellent (r=0.99).
Caloric availability of an unknown substance is evaluated by substituting a specific weight of the unknown substance for the reference substance and observing the body weight gain. The gain in body weight is equated to a total number of calories using the correlation previously established for the reference data. The estimated number of calories ingested are divided by the weight of unknown substance to give the apparent calories per gram for the unknown substance. Generally speaking, in these bioavailability studies, the degree of perianal pelt soiling correlates with reduced bioavailability.
The test animals are six-week-old male Sprague-Dawley rats obtained from the Portage, Mich. facility of the Charles River Laboratories, Inc. After acclimation for 15 days, the test duration is 14 days. […]

[2] = test system: porcine pancreatic lipase; assay: in vitro digestibility: hydrolysis by pancreatic lipase (TLC densitometry); format: in vitro ADME; conditions: in 10 minutes, triglyceride control, 37° C., pH 7.1
Experimental: This example outlines the procedure for estimating the in vitro digestibility of the synthetic fat mimetics of this invention.
1. Buffer: A pH 7.1 phosphate buffer is prepared by dissolving 6.8 g. KH2 PO4 in 1 L. of millipore filtered water (to yield 0.05 M phosphate). Fifty mg. Ca(NO3)2 and 5.0 g. cholic acid (Na salt, an ox bile isolate from Sigma) are added to give 300 microM Ca^++ and 0.5 % cholic acid in 0.05 M phosphate. The pH is adjusted to approximately 7.1 with solid NaOH. Several drops of Baker "Resi-analyzed" toluene are added to prevent bacterial growth during storage at 3-5° C.
2. Lipase: About 15 mg./mL commercial porcine pancreatic lipase from U.S. Biochemical Corporation is dissolved in buffer.
3. Substrates and Standards: A 1.0 mL volumetric flask is charged with an amount of lipid substrate (test substance or standard) calculated to give a concentration of 200 nanomoles per microliter in Baker "Resi-analyzed" toluene. (The proper concentration may be approximated by […] the molecular weight of the lipid in question, dividing by 10, and diluting to the mark; this yields about 200 nanomoles per microliter.) This preparation affords the substrate to be used in the hydrolysis reactions. […]

hydrolysis by pancreatic lipase [2] | Structure (SMILES) | caloric availability (kcal/gram upon being metabolized) [1]
 | CCCCCCCC/C=C\CCCCCCCC(=O)OCC(C)(COC(=O)CCCCCCC/C=C\CCCCCCCC)COC(=O)CCCCCCC/C=C\CCCCCCCC [Example 1, 1,1,1-Tris-hydroxymethylethane trioleate] | about 3.3 kcal/gram
substantially hydrolyzed | CCCCCCCC/C=C\CCCCCCCC(=O)OCC(COC(=O)CCCCCCC/C=C\CCCCCCCC)OC(=O)CCCCCCC/C=C\CCCCCCCC [triolein] | 
